{
  "source": "patent US7985731B2",
  "about": "“Sugar chain added GLP-1 peptide” (Otsuka Chemical Holdings Co., Ltd., priority 2007, dated 2011)",
  "key": {"[1]": {"assay": "Test Example 1: stability in plasma", "type": "in vitro ADME", "conditions": "PBS 70% / plasma 30%, 37° C., sampled 10 to 1440 minutes", "experimental": "0.1 mg of the peptide prepared in Example 7 or Comparative Example 1 was placed in an Eppendorf tube, and PBS (0.08 ml, 70% of the whole amount) and plasma (0.034 ml, 30% of the whole amount) were sequentially placed therein to bring about the solution amount to 0.114 ml in total. The mixture was allowed to react at 37° C.\nThe time when plasma was added to the reaction vessel was defined as 0 min. 0.01 ml aliquots were taken from the reaction solution on 10, 30, 60, 180, 360, 720 and 1440 minutes for sampling.\nEach sampled reaction solution was mixed with 0.02 ml of 10% trifluoroacetic acid solution prepared in advance in an Eppendorf tube and then centrifuged. A 0.025 ml aliquot of the supernatant of the solution mixture was injected into HPLC to analyze the composition of the reaction solution (reaction monitoring conditions: Shiseido CAPCELL PAK C18, UG120, 250×4.6 mm, developing solvent A: 0.1% aqueous TFA solution, B: 0.1% TFA acetonitrile: water=90:10, gradient A:B=95:5→5:95, 15 min, flow rate: 0.7 ml/min). The results are shown in FIGS. 5 (Example 7) and 6 (Comparative Example 1)."}, "[2]": {"tested_on": "type-2 diabetes model mice (BKS.Cg-+Lepr db/+Lepr db/Jcl)", "assay": "Test Example 2: effect of lowering blood-sugar levels in db/db mice-1", "type": "in vivo", "conditions": "9 nmol/kg intraperitoneal, 8-week-old male db/db mice, 0-180 minutes", "experimental": "The peptide prepared in each of Examples 1 to 5 or Comparative Example 1 was intraperitoneally administered as the same sample at a dose of […] of body weight (sample concentration: 9 nmol/kg of body weight) to each of three 8-week-old male type-2 diabetes model mice (BKS.Cg−+Lepr^db/Lepr^db/Jcl*). Specifically, the peptide in a PBS solution (9 nmol/10 ml) was intraperitoneally administered at a dose of 10 ml/kg to the BKS.Cg−+Lepr^db/+Lepr^db/Jcl mice (8 week old, male). 0, 30, 60, 90, 120 and 180 minutes after the administration, 0.03 ml of peripheral blood from the retro-orbital venous plexus was collected. The obtained blood was diluted with PBS to 0.3 ml in total, and the solution was centrifuged to separate plasma and hemocyte components. Then, only the plasma component was transferred to an Eppendorf tube separately prepared and refrigerated. A glucose concentration in plasma was measured in accordance with Glucose CII-Test Wako using an absorptiometer. The results were obtained by statistical processing."}, "[3]": {"tested_on": "C57BL/6JJcl mice", "assay": "Test Example 7: Oral Glucose Tolerance Test (OGTT)", "type": "in vivo", "conditions": "9 nmol/kg intraperitoneal 30 minutes before glucose 1 mg/g oral", "how_it_was_run": "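Overnight-fasted mice received oral glucose 1 mg/g 30 minutes after treatment. Orbital blood taken before and at 30, 60, 120 minutes post-glucose. Blood glucose measured by glucometer.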"}, "[4]": {"tested_on": "db/db (BKS.Cg-+Lepr db/+Lepr db/Jcl) mice", "assay": "Test Example 8: effect of lowering blood-sugar levels in diabetes model mice", "type": "in vivo", "conditions": "9 nmol/kg intraperitoneal, 10-week-old male mice", "how_it_was_run": "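Male db/db mice, 10 weeks old, given oligosaccharide-chain-added GLP-1 peptide or unmodified GLP-1 intraperitoneally in PBS (9 nmol/10 ml, 10 ml/kg). Orbital blood sampled before dosing and at 30, 60, 120, 180 and 300 min; blood glucose read with a glucometer.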"}},
  "note": "Ends that are not written are not given here. asialo oligosaccharide = not defined here",
  "data": [
    {"molecule": "19Asn GLP-1-asialo (HAEGTFTSDVSSN(asialo oligosaccharide)LEGQAAKEFIAWLVKGRG; reading uncertain) [Example 7, GLP-1 wherein position 19 is substituted by asialo oligosaccharide chain added Asn]", "values": [
      {"measurement": "stability in plasma (HPLC analysis of remaining peptide)", "setting": "[1]", "result": "mostly remained even after 24 hours"}
    ]},
    {"molecule": "CC[C@H](C)[C@H](NC(=O)[C@H](Cc1ccccc1)NC(=O)[C@H](CCC(=O)O)NC(=O)[C@H](CCCCN)NC(=O)[C@H](C)NC(=O)[C@H](C)NC(=O)[C@H](CCC(N)=O)NC(=O)CNC(=O)[C@H](CCC(=O)O)NC(=O)[C@H](CC(C)C)NC(=O)[C@H](Cc1ccc(O)cc1)NC(=O)[C@H](CO)NC(=O)[C@H](CO)NC(=O)[C@@H](NC(=O)[C@H](CC(=O)O)NC(=O)[C@H](CO)NC(=O)[C@@H](NC(=O)[C@H](Cc1ccccc1)NC(=O)[C@@H](NC(=O)CNC(=O)[C@H](CCC(=O)O)NC(=O)[C@H](C)NC(=O)[C@@H](N)Cc1c[nH]cn1)[C@@H](C)O)[C@@H](C)O)C(C)C)C(=O)N[C@@H](C)C(=O)N[C@@H](Cc1c[nH]c2ccccc12)C(=O)N[C@@H](CC(C)C)C(=O)N[C@H](C(=O)N[C@@H](CCCCN)C(=O)NCC(=O)N[C@@H](CCCNC(=N)N)C(=O)NCC(=O)O)C(C)C", "note": "[Comparative Example 1, GLP-1]", "values": [
      {"measurement": "stability in plasma (HPLC analysis of remaining peptide)", "setting": "[1]", "result": "mostly degraded by 180 minutes after the plasma addition"},
      {"measurement": "effect of lowering blood-sugar levels (glucose concentration in plasma)", "setting": "[2]", "result": "hardly lowered blood-sugar levels"},
      {"measurement": "effect of suppressing rise in blood-sugar levels in OGTT", "setting": "[3]", "result": "small effect of suppressing rise in blood-sugar levels"},
      {"measurement": "effect of lowering blood-sugar levels in db/db mice", "setting": "[4]", "result": "almost equal to those in PBS-administered mice"}
    ]}
  ]
}
